For one experiment, the target named is T1, human Fpn (Homo sapiens, UniProt Q9NP59).
T1 construct: FLAG (C); made in house; host or cells: Pichia pastoris
T1 sequence (Q9NP59 1-571): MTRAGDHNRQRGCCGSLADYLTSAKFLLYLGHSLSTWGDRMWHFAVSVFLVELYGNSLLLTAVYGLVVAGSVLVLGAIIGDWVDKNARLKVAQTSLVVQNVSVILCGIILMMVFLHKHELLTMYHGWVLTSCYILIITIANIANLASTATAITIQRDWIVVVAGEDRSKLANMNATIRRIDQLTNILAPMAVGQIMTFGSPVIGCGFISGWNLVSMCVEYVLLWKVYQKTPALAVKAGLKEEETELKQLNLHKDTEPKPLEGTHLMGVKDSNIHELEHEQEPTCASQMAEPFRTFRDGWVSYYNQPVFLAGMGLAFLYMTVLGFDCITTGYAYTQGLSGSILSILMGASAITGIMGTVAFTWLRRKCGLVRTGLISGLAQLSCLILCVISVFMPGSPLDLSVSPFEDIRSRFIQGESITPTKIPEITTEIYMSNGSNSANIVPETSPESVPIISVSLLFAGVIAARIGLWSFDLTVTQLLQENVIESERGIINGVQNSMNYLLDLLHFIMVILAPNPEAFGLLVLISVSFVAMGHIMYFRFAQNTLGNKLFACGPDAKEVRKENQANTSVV
As to the kind of experiment: Biophysical Ferroportin-Hepcidin Binding Assay (fluorescence polarization). The conditions noted are these: average of multiple measurements; 1 μM human Fpn, 20 nM TMR-hepcidin; read-out: FP IC50. Here is the method:
This biophysical assay was developed to confirm inhibition of hepcidin binding to ferroportin (Fpn) more directly. Incubation of TMR-hepcidin with purified human Fpn isolated from Pichia pastoris yeast cells expressing human Fpn with a C-terminal FLAG affinity tag (Bonaccorsi di Patti, 2014) leads to increased fluorescence polarization (FP) of the TMR-hepcidin ligand. Small molecular weight Fpn inhibitors were tested for inhibition of binding of TMR-hepcidin to Fpn, as detected by dose-dependent decrease of the TMR FP signal, as described in detail below.
8 μl of serial dilutions of test compounds were added in duplicates to reach final Fpn and TMR-hepcidin concentrations of 1 μM and 20 nM, respectively. Plates were incubated for 90 minutes at room temperature and parallel (S) and perpendicular (P) fluorescence was measured in a Synergy H1 fluorescence reader (BioTek). FP values were calculated in mP according to the following formula.

The next experiment concerns the target T2, ferroportin (Fpn) (Mus musculus, UniProt Q9JHI9).
T2 construct: host or cells: J774 mouse macrophage cell line, Fe(III)-NTA induced
T2 sequence (Q9JHI9 1-570): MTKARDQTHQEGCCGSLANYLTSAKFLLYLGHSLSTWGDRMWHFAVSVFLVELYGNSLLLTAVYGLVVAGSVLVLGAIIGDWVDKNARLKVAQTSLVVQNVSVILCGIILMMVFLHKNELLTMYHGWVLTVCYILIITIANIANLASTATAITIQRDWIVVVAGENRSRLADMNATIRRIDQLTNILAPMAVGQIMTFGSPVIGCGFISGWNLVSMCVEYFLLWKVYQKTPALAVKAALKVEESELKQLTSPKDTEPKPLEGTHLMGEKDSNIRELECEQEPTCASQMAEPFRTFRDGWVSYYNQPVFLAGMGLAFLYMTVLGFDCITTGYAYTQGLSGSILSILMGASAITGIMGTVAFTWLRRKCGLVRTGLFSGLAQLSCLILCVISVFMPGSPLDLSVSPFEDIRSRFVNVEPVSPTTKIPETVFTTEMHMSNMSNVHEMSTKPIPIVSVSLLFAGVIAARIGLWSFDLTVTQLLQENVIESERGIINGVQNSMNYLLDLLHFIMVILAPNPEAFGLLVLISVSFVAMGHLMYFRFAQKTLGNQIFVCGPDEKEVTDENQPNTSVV
Description: Hepcidin Internalization Assay (J774). In kind it is cell-based. The conditions noted are these: average of multiple measurements; inhibition of TMR-hepcidin (25 nM) internalization into J774 cells; read-out: J774 IC50. An excerpt: This cellular assay allows quantification of the binding of hepcidin to ferroportin (Fpn) through microscopic detection of internalization of a fluorescently labeled hepcidin into J774 cells. […] Binding of hepcidin to Fpn triggers internalization and degradation of both hepcidin and Fpn. However, the TMR (6-carboxytetramethylrhodamine) fluorophore attached to hepcidin remains associated with the cell after degradation of the hepcidin peptide backbone. Therefore, microscopic detection of ceH associated TMR fluorescence is a measure of hepcidin binding to Fpn and internalization of hepcidin and Fpn. If TMR-hepcidin is prevented from binding to Fpn, cellular TMR fluorescence remains low (Dürrenberger et al, 2013). The effect of small molecular weight Fpn inhibitor compounds in this assay was evaluated in vitro as described below.
J774 cells, harvested from ca. 80% confluent cultures, were plated at 8×10^5 cells/ml in complete medium (DMEM, 10% FBS, 1% Penicillin-Streptomycin) containing 200 μM Fe(III)NTA (nitrilotriacetic acid), 100 μl per well of 96 well MicroClear plates (Greiner; Cat. 655090) and grown at 37° C. with 5% CO2. After overnight incubation, cells were washed 3 times with pre-warmed DMEM w/o phenol red, 30 μl/well of DMEM w/o phenol red was added after the final wash and 10 μl/well of dilution series of test compounds were added in triplicates. […] Cells were incubated in a total volume of 50 μl at 37° C. with 5% CO2 for 2 hours, then Hoechst 33342 dye was added to a final concentration of 0.5 μg/ml to stain nuclei and further incubated for 10 min. at 37° C. with 5% CO2. Cells were washed 3 times with PBS and fixed in 100 μl of 4% paraformaldehyde in PBS for 15 min. at room temperature. After removal of the paraformaldehyde solution, cells were washed 3 times with PBS leaving 100 μl per well and the plates were sealed with foil plate seal. TMR (530-550 nm excitation/575-625 nm emission/400 ms exposure time) and Hoechst 33342 (360-370 nm excitation/420-460 nm emission/10 ms exposure time) fluorescence images were acquired using a ScanR plate imager (Olympus) with a 20× high NA objective. Four pictures were acquired per well and fluorescence channel covering ca. 1500 cells per well. The acquired image data was analysed with the ScanR image analysis software. Image analysis included detection of nuclei (Hoechst 33342 fluorescence), identification of cell-associated regions, application of a virtual channel and thresholding for rolling-ball-type background reduction, followed by application of the Sum(Mean) algorithm to measure the TMR fluorescence associated with cells as a quantitative measure for internalized TMR-hepcidin. IC50 values were calculated with the Sum(Mean) raw data using “log(inhibitor) vs. response” curve fitting of Prism 5 software (GraphPad Software Inc., version 5.02).

What is called IC50 is the point on the concentration scale where inhibition reaches its midpoint.

As to `O=C(NCc1ccccc1)c1csc(CCNCc2ccc(F)cn2)n1` [Example 6], the IC50 at human Fpn is 48.6 µM; on ferroportin (Fpn) it was 12.7 µM.
Take `O=C(NCc1ccccc1)c1csc(CCNCc2ccccn2)n1` [Example 11]: the IC50 at human Fpn was 7.83 µM; at ferroportin (Fpn), 20.9 µM.
The corresponding values for `O=C(NCc1cccs1)c1csc(CCNCc2nc3ccccc3[nH]2)n1` [Example 16] are 1.72 µM and 0.9 µM.
For `CN(Cc1ccccc1)C(=O)c1csc(CCNCc2nc3ccccc3[nH]2)n1` [Example 17], the IC50 came to 3.53 µM on human Fpn and 6.4 µM on ferroportin (Fpn).
On to `CN(C(=O)c1csc(CCNCc2nc3ccccc3[nH]2)n1)c1ccccc1` [Example 19], for which the IC50 at human Fpn came to 10.2 µM; on ferroportin (Fpn), 10 µM.
`O=C(NCc1ccccc1)c1csc(CCNCc2ncc[nH]2)n1` [Example 20]: the values for the IC50 on human Fpn and on ferroportin (Fpn) were 9.61 µM and 9.4 µM, respectively.
The corresponding values for `O=C(NCc1cccc(N2CCCC2)c1)c1csc(CCNCc2nc3ccccc3[nH]2)n1` [Example 21] are 1.43 µM and 6.7 µM.
As to `CN(C)C(=O)c1csc(CCNCc2nc3ccccc3[nH]2)n1` [Example 22], the results for the IC50 on human Fpn and on ferroportin (Fpn) were 14.2 µM and 17.2 µM, respectively.
In the case of `CC(C)N(C(=O)c1csc(CCNCc2nc3ccccc3[nH]2)n1)C1CCCCC1` [Example 25], the IC50 on human Fpn stood at 3.93 µM; at ferroportin (Fpn), 2.2 µM.
On to `CC(C)(NC(=O)c1csc(CCNCc2nc3ccccc3[nH]2)n1)c1ccccc1` [Example 26], for which the IC50 at human Fpn amounted to 1.12 µM; at ferroportin (Fpn) it was 0.7 µM.
As to `Cn1c(CNCCc2nc(C(=O)NCc3ccccc3)cs2)nc2ccccc21` [Example 28], the half-inhibitory concentration (IC50) came out at 1.22 µM on human Fpn and 0.18 µM on ferroportin (Fpn).
With `O=C(NCc1ccccc1)c1csc(CCNCc2nc3cc(O)ccc3[nH]2)n1` [Example 30], the IC50 came to 2.33 µM at human Fpn and 12.9 µM on ferroportin (Fpn).
As to `O=C(NCc1ccccc1)c1csc(CCNCc2nc3cc(F)ccc3[nH]2)n1` [Example 31], the IC50 on human Fpn is 0.94 µM; on ferroportin (Fpn) it was 1.1 µM.
As to `O=C(NCc1ccccc1)c1csc(CCNCc2nc3cccnc3[nH]2)n1` [Example 33], the IC50 at human Fpn came out at 17.2 µM; at ferroportin (Fpn), 3.62 µM.
For `O=C(NCc1ccccc1)c1csc(CCNCc2cn3ccccc3n2)n1` [Example 34], in that order: 4.29 µM and 0.36 µM.
On to `O=C(NCc1cccnc1)c1csc(CCNCc2nc3ccccc3[nH]2)n1` [Example 35], for which the IC50 at human Fpn worked out at 2.16 µM; at ferroportin (Fpn) it was 0.19 µM.
As to `O=C(NCc1ccncc1)c1csc(CCNCc2nc3ccccc3[nH]2)n1` [Example 36], the results for the IC50 on human Fpn and at ferroportin (Fpn) were 3.65 µM and 0.25 µM, respectively.
In the case of `CN1CCOCC1CNC(=O)c1csc(CCNCc2nc3ccccc3[nH]2)n1` (stereo not shown) [Example 41], the IC50 at human Fpn is 12 µM; at ferroportin (Fpn) it was 3.98 µM.
For `COc1ccc(CNC(=O)c2csc(CCNCc3nc4ccccc4[nH]3)n2)nc1` [Example 45], the IC50 on human Fpn amounted to 2.1 µM; at ferroportin (Fpn), 0.44 µM.
Turning to `O=C(NCc1cccc(=O)[nH]1)c1csc(CCNCc2nc3ccccc3[nH]2)n1` [Example 47], the results for the IC50 on human Fpn and on ferroportin (Fpn) were 3.42 µM and 0.72 µM, respectively.
For the compound `COc1ccc2[nH]c(CNCCc3nc(C(=O)NCc4ccccc4)cs3)nc2c1` [Example 50], the IC50 on human Fpn came to 1.48 µM; at ferroportin (Fpn), 0.41 µM.
The corresponding values for `NC(=O)c1ccc(CNC(=O)c2csc(CCNCc3nc4ccccc4[nH]3)n2)cn1` [Example 54] are 11.4 µM and 0.46 µM.
As for `O=C(NCc1nc2ccccc2[nH]1)c1csc(CCNCc2nc3ccccc3[nH]2)n1` [Example 60], the IC50 on human Fpn is 0.974 µM; at ferroportin (Fpn), 2.39 µM.
For the compound `O=C(NCc1ccccc1)c1csc(CCNCc2nc3cc(OC(F)(F)F)ccc3[nH]2)n1` [Example 62], the figures for the IC50 at human Fpn and at ferroportin (Fpn) were 0.436 µM and 0.93 µM, respectively.
In the case of `O=C(NCc1ccccc1N1CCOCC1)c1csc(CCNCc2nc3ccccc3[nH]2)n1` [Example 63], the IC50 on human Fpn came out at 0.846 µM; on ferroportin (Fpn) it was 0.61 µM.
Turning to `O=C(NCc1ccccc1)c1ccc(CCNCc2nc3ccccc3[nH]2)cc1` [Example 66], the IC50 on human Fpn turned out to be 53.8 µM; at ferroportin (Fpn) it was 0.41 µM.
As for `O=C(NCc1c(F)cccc1F)c1csc(CCNCc2nc3ccccc3[nH]2)n1` [Example 69], the figures for the IC50 at human Fpn and at ferroportin (Fpn) were 1.51 µM and 0.26 µM, respectively.
The corresponding values for `CN(C)c1ccccc1CNC(=O)c1csc(CCNCc2nc3ccccc3[nH]2)n1` [Example 70] are 1.06 µM and 0.53 µM.
`O=C(NCc1ccccc1OC(F)(F)F)c1csc(CCNCc2nc3ccccc3[nH]2)n1` [Example 72]: the IC50 at human Fpn is 0.931 µM; at ferroportin (Fpn), 1.36 µM.
On to `CC(NC(=O)c1csc(CCNCc2nc3ccccc3[nH]2)n1)c1ccccc1` (stereo not shown) [Example 73], for which the results for the IC50 at human Fpn and at ferroportin (Fpn) were 1 µM and 0.37 µM, respectively.
Turning to `O=C(NCc1ccccc1OC(F)F)c1csc(CCNCc2nc3ccccc3[nH]2)n1` [Example 74], the results for the IC50 on human Fpn and on ferroportin (Fpn) were 0.451 µM and 0.21 µM, respectively.
The corresponding values for `O=C(NCCc1ccccn1)c1csc(CCNCc2nc3ccccc3[nH]2)n1` [Example 76] are 5.08 µM and 0.34 µM.
Take `O=C(NCc1ncccc1F)c1cnn(C2CCN(Cc3nc4ccccc4[nH]3)CC2)c1` [Example 150]: the IC50 on human Fpn was determined as 73 µM.
Regarding `O=C(NCc1ncccc1F)c1cnn(CC2CCCN(Cc3nc4ccccc4[nH]3)C2)c1` (stereo not shown) [Example 153], the IC50 at human Fpn came out at 57.8 µM.
On to `O=C(NCc1ncccc1F)[C@@H]1CCN(CCNCc2nc3ccccc3[nH]2)C1` [compound 202], for which the half-inhibitory concentration (IC50) at ferroportin (Fpn) came to 5 µM.

(Values after patent US10738041B2, “Ferroportin inhibitors” (Vifor (International) AG, priority 2015, dated 2020).)
